Results on three molecules are retold here after PMC12292862 (Biomedicines, 2025).

“Also recorded” adds a separate entry of the source. Marks after values point to notes of the source that are not given here.

In data set [1] the test system is Wistar rats. The data set is described as follows: Acute toxicity pilot study (OECD 423). Format: in vivo. Particulars: rat, i.p., 200 mg/kg. The protocol:
According to OECD guidelines (Testing of Chemical Number 423), the study was carried out. In this study, mature male Wistar rats in good health were selected. After a 24 h fast, the animals were divided into groups of six. The test compounds were injected intraperitoneally at dosages ranging from 100 mg to 2000 mg per kilogram, dissolved in 2% Tween 80 saline solutions (v/v). The animals in the control groups were given just the vehicle, which was Tween 80 in 0.9% normal saline. […] Thus, 200 mg/kg (ED 50), which is considered one-tenth of the LD 50, was chosen as the anti-inflammatory dose.

The subject of data set [2] is TNF-α. The experiment in a line: Serum TNF-α (ELISA) in carrageenan-injected rats. Format: in vivo, rat. As to conditions: compounds 200 mg/kg i.p., indomethacin 10 mg/kg, mean ± SD. The protocol:
(§1) The selective pro-inflammatory cytokines were measured quantitatively using rat-specific Enzyme-Linked Immunosorbent Assay (ELISA) kits from Thermo Scientific™ (Waltham, MA, USA) with CAT. No. ERCRP for CRP; from Elabscience with Cat. No. E-EL-R2856 for TNF-α and with Cat. No. E-EL-R0011 for IL-1α; from CUSABIO, Houston, TX, USA, with Cat. No. CSB-E04640r for IL-6; and from My BioSource Co, USA, with Cat. No. MBS825017 for IL-1β, with Cat. No. MBS753621 for rat cyclooxygenase 1, and with Cat. No. MBS266603 for rat cyclooxygenase 2. Meanwhile, an ovine COX inhibitor-screening in vitro assay (item number 760111) was obtained from Cayman Chemical (Ann Arbor, MI, USA). We purchased malondialdehyde (MDA), glutathione (GSH), and superoxide dismutase (SOD) detection kits from Nanjing Jiancheng Bio-Technology Co. Ltd. (Nanjing, China).
(§2) At the end of the experiments, the rats were subjected to anesthesia with chloroform and then sacrificed. Blood was obtained via heart puncture for biochemical analysis. Following the animals’ sacrifice, the paws were taken out, decalcified, and stored in a 10% formalin solution. To prepare the tissue samples, they were sliced into thicknesses of 5 µm. Hematoxylin and eosin dyes were used to create the histology slides, which were then examined using a photomicroscope (Meiji Techno®, Iruma, Japan) for pathological alterations. The presence of inflammation was documented. Protease/phosphatase inhibitor cocktail in cold phosphate-buffered saline (1:4) (pH 7, 0.01 mol/L) (Cat. No. PPC1010, Sigma-Aldrich) was used to homogenize each rat’s paw piece in a glass homogenizer. After filtering and centrifuging the resultant homogenate for five minutes at 5000× g, oxidative stress biomarkers like GSH, SOD, and MDA were measured. The trials were repeated three times.

Data set [3] concerns rat paw tissue. The experiment in a line: Histomorphometry lesion scores of paw tissue sections. Particulars: vs carrageenan group; for inflammation scores: Figure 11A; for total lesion scores: Figure 11D. Format: in vivo.
The test system of data set [4] is IL-1β. The data set is described as follows: Serum IL-1β (ELISA) in carrageenan-injected rats. Format: in vivo, rat. As to conditions: compounds 200 mg/kg i.p., indomethacin 10 mg/kg, mean ± SD. The protocol: as §1, §2
In general terms: ELISA stands for enzyme-linked immunosorbent assay.

The target in data set [5] is bovine serum albumin (Bos taurus, UniProt P02769). The experiment in a line: Bovine serum albumin denaturation inhibition assay. As to conditions: 50–1000 µg/mL; Figure 2A; result in words. The protocol:
A bovine serum albumin assay was conducted using the previously mentioned technique. Synthesized compounds were dissolved in 2% Tween 80 saline solution (v/v) to create a solution at different doses of 50, 100, 200, 400, 800, and 1000 μg/mL. To prepare the test control sample (0.5 mL), 0.45 mL of 5% w/v bovine serum albumin was dissolved in 0.05 mL of distilled water. A product control solution was made by mixing 0.45 mL of Tween 80 with 0.50 mL of the test sample. 0.45 mL of bovine serum albumin and 0.50 mL of synthesized compounds made up the […] test solution. […] A pH of 6.3 was adjusted using 1 N HCl. Every solution was heated for 3 min at 60 °C after being kept at 37 °C for 20 min. Samples were then allowed to cool, and their absorbance at 660 nm was measured. Three duplicates of the procedure were carried out, and the percentage inhibition of denaturation of the bovine serum albumin was calculated using the following formula:%Inhibition = ((Absorbance Control − Absorbance Sample)/(Absorbance control)) × 100.

Data set [6] has as its system egg albumin. The data set is described as follows: Egg albumin protein denaturation inhibition assay. Particulars: 50–1000 µg/mL; Figure 2B; result in words. The protocol:
To determine the egg albumin protein denaturation inhibition assay, the previously mentioned approach was used. Egg albumin (0.2 mL), 2.8 mL of phosphate-buffered saline (pH 6.4), and 2 mL of synthesized compound solutions in various concentrations were added to 5 mL of reaction mixture for this experiment. […] The reaction solutions were heated to 37 °C for 15 min, then to 70 °C for 5 min. After cooling, the absorbance of the solutions was measured at 660 nm. The experiment was conducted in triplicate, and the percentage inhibition of denaturation of the protein was calculated using the following formula:%Inhibition = ((Absorbance Control − Absorbance Sample)/(Absorbance control)) × 100.

Chain of bovine serum albumin (P02769 25-607): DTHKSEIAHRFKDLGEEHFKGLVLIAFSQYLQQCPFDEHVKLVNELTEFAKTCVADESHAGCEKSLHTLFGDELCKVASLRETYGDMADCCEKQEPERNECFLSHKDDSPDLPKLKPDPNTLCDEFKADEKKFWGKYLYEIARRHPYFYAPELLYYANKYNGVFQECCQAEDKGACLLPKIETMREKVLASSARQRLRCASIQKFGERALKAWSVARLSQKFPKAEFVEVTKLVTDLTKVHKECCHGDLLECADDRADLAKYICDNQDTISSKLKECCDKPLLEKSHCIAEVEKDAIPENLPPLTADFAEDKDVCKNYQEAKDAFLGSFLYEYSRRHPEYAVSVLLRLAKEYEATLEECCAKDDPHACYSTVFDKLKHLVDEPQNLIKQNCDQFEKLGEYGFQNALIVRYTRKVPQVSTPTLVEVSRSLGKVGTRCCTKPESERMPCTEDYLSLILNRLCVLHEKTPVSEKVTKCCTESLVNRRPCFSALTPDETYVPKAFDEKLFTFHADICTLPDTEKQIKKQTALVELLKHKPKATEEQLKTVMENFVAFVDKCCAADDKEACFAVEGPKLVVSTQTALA

On to `NC1=NC2(CCCCCC2)n2nc(C(=O)Nc3ccc(S(N)(=O)=O)cc3)nc2N1` [Compound 1, 5′-Amino-N-(4-sulfamoylphenyl). -1′H-spiro[cycloheptane-1,7′-[1,2,4]triazolo[1,5-a][1,3,5] -triazine] -2′-carboxamide], for which, in data set [1], the Ability to feed result is “Normal”, the “Change in skin color” value is “Normal”, the Death result is reported as “No” and the Diarrhea entry is listed as “Present”. Further, in data set [1], the Drowsiness result is reported as “Absent”, the Dyspnea result was “Absent”, the Micturition result is “Normal” and the Seizures result is recorded as “Absent”. The Weight loss result in data set [1] was “No”. Further, the Death result in data set [1] (listed as compound 1, 200 mg/kg) is reported as “no mortality”. Further, in data set [2], the TNF-α is 8.27 ± 0.19 ^b pg/mL. Also, in data set [3], the inflammation scores result is reported as “significantly reduced inflammation scores” and the total lesion scores result is reported as “reduced total lesion scores significantly”. For the same molecule, the IL-1β in data set [4] was 64.98 ± 0.30 ^b pg/mL.

Turning to `NC1=NC2(c3ccccc3Cc3ccccc32)n2nc(C(=O)Nc3ccc(S(N)(=O)=O)cc3)nc2N1` [Compound 3], in data set [1], the Ability to feed entry was “Normal”, the “Change in skin color” value was “Normal”, the Death result was “No” and the Diarrhea entry is “Present”. Further, in data set [1], the Drowsiness result is reported as “Absent”, the Dyspnea entry is “Absent”, the Micturition result is “Normal” and the Seizures entry is recorded as “Absent”. Also, the Weight loss entry in data set [1] is given as “No”. The Death entry in data set [1] (listed as compound 3, 200 mg/kg) is “no mortality”. Moreover, the “inhibition of bovine serum albumin denaturation” value in data set [5] was “highest protective effect; also recorded: superior percentage inhibition of protein denaturation”. This molecule also had a TNF-α in data set [2] of 7.16 ± 0.13 pg/mL. The TNF-α in data set [2] (listed as C3) is 7.16 ± 0.13 ^b pg/mL. In data set [3], the inflammation scores entry was “approaching those of the normal control group” and the total lesion scores result is “reduced total lesion scores significantly; also recorded: comparable to the normal control group”. Besides, the inflammation scores result in data set [3] (listed as compound 3) is “significantly reduced inflammation scores”. In addition, the edema scores entry in data set [3] (Figure 11B) is “comparable to those of the control group”. The vascular alteration scores entry in data set [3] (Figure 11C) is recorded as “near-normal levels”. The molecule further showed an IL-1β in data set [4] of 60.38 ± 0.73 pg/mL. For the same molecule, in data set [4] (listed as C3), the IL-1β is given as 60.38 ± 0.73 ^b pg/mL. Moreover, in data set [6], the “inhibition of egg albumin protein denaturation” value is listed as “highest protective effect; also recorded: superior percentage inhibition of protein denaturation”.

With `CC1(C)CC(=O)CC2(C1)N=C(N)Nc1nc(C(=O)Nc3ccc(S(N)(=O)=O)cc3)nn12` (stereo not shown) [Compound 2], in data set [1], the Ability to feed result is “Normal”, the “Change in skin color” value was “Normal”, the Death entry was “No” and the Diarrhea entry is listed as “Present”. Also, in data set [1], the Drowsiness result is recorded as “Absent”, the Dyspnea result is “Absent”, the Micturition entry is recorded as “Normal” and the Seizures entry is “Absent”. For the same molecule, in data set [1], the Weight loss result is “No”. Moreover, the Death result in data set [1] (listed as compound 2, 200 mg/kg) is reported as “no mortality”. For the same molecule, the “inhibition of bovine serum albumin denaturation” value in data set [5] was “moderate inhibition; also recorded: superior percentage inhibition of protein denaturation”. In addition, in data set [2], the TNF-α is listed as 9.38 ± 0.20 ^b pg/mL. The IL-1β in data set [4] is on record as 77.98 ± 0.45 ^b pg/mL. Moreover, the “inhibition of egg albumin protein denaturation” value in data set [6] is “moderate inhibition; also recorded: superior percentage inhibition of protein denaturation”.
